According to ChEMBL document CHEMBL1128784, “Symmetry-based HIV Protease inhibitors: rational design of 2-methylbenzamides as novel P2/P2 ligands” (Bioorg Med Chem Lett, 1995):

Target: Human immunodeficiency virus type 1 protease (Human immunodeficiency virus 1, UniProt Q72874)
Assay: Inhibitory activity against HIV protease

SMILES	Ki [µM]
Cc1ccc(O)cc1C(=O)N[C@@H](Cc1ccccc1)[C@H](O)[C@H](O)[C@H](Cc1ccccc1)NC(=O)c1cc(O)ccc1C	0.074
Cc1c(N)cccc1C(=O)N[C@@H](Cc1ccccc1)[C@H](O)[C@H](O)[C@H](Cc1ccccc1)NC(=O)c1cccc(N)c1C	0.0025
